# Patent publication US20180016593A1, “HERBICIDE-RESISTANT SUNFLOWER PLANTS, POLYNUCLEOTIDES ENCODING HERBICIDE-RESISTANT ACETOHYDROXYACID SYNTHASE LARGE SUBUNIT PROTEINS, AND METHODS OF USE” (priority 2005, published 2018)
# Where two headings read alike, the source gives them in different places.
# How the values were obtained:
# [1] = test system: Clearfield sunflower variety C; assay: Greenhouse spray injury rating (Example 5); assay type: in vivo; conditions: in vivo
# Excerpt: (§1) Methods: Sunflower lines S4897, Clearfield® sunflower varieties A, B, C and a conventional non-Clearfield variety were sprayed with three rates of imazamox (Raptor™), 100, 200 and 300 gm ai/ha plus 0.5% Sun It II and two rates of imazapyr (Arsenal™) 160 and 360 gm ai/ha plus 0.5% Sun It II when the plants were at the two to three leaf stage. Ratings were taken at 14 days after application (DAT) for injury. Injury was rated on a scale from 0 to 9 where […] to 9=dead plant. Twelve plants were sprayed per herbicide/rate treatment. Statistical analysis was conducted with STATGRAPHICS Plus 5.0 by using ANOVA and LSD procedures.
# (§2) Results: After plants were sprayed, it was realized that a height difference between S4897 and other sunflower varieties would have impacted the actual herbicide dose that was delivered. The spray boom height had been calibrated against S4897 and since the other varieties were taller and closer to the boom they would have received a greater dose of herbicide. Rates were recalibrated for the other varieties to determine the approximate dose they would have received. Assessments were made as presented in Table 2 since it was not possible to make a direct rate comparison due to the effect of the height. For example injury scores were compare for S4897 treated imazamox rate 100 gm ai/ha to the other varieties treated at 75 gm ai/ha. The treatment dose of 300 gm ai/ha for line S4897 was equivalent to the treatment of 200 gm ai/ha for the other varieties, which approximately was 300 gm ai/ha.
# [2] = test system: conventional non-Clearfield variety; assay: Greenhouse spray injury rating (Example 5); assay type: in vivo; conditions: in vivo
# Excerpt: as §1, §2
# [3] = test system: Clearfield sunflower variety A; assay: Greenhouse spray injury rating (Example 5); assay type: in vivo; conditions: in vivo
# Excerpt: as §1, §2
# [4] = test system: Clearfield sunflower variety B; assay: Greenhouse spray injury rating (Example 5); assay type: in vivo; conditions: in vivo
# Excerpt: as §1, §2
# [5] = test system: sunflower GIM 5-6 (Restorer Line, A122T); assay: Greenhouse whole-plant imazapir dose response (Example 8); assay type: in vivo, Helianthus annuus; conditions: GIM5-6, 14 DAT
# Procedure: (§3) A greenhouse study was conducted to quantify and contrast the imazapir sensivity of the mutants A122T and A205V in different genetic backgrounds at the whole plant level in sunflower. Seeds of the different sunflower lines that were used in this study were obtained under field conditions.
# (§4) Seeds were sown in Petri dishes and, after germination, plantlets were transplanted to pots of 10 cm of diameter in a potting media consisting of equal parts of vermiculite, soil and sand. Plants were grown in a greenhouse under natural light conditions supplemented with 400 W sodium halide lamps to provide a 16 hrs daylength. Day/night temperatures were 25 and 20° C., respectively. At the V2 stage 10 plants of each genotype were randomly assigned to each treatment consisting of […] imazapir doses (0, 40, 80, 160, 240, 320, 400 and 480 g ai/ha), and a zero-time biomass determination. Experiment was arranged as a randomized block design with a full factorial (sunflower line×treatment) arrangement of treatments and 10 replications.
# (§5) On the day of herbicide application ten plants of each genotype were cut at the cotyledonal node and dried at 60° C. for 48 hrs zero-time for dried weight determination.
# (§6) Height was determined as the distance between the cotyledonal node and the apex of each plant. For root biomass determination, each plant was taken from the pot and the potting media was washed out from the roots. Above ground biomass data from each line were converted to biomass accumulation after application by subtracting the appropriate average zero-time biomass from each sample. Dry biomass data were converted to percentages of the untreated control plants within each line to allow direct comparisons between groups. […]
# [6] = test system: sunflower GM1606 (Manteiner Line, A122T); assay: as above; assay type: in vivo, Helianthus annuus; conditions: 14 DAT
# Procedure: as §3, §4, §5, §6
# [7] = test system: sunflower TH9 (Hybrid, A205V); assay type: in vivo, Helianthus annuus; conditions: 14 DAT
compound,measurement,setting,value
CC(C)C1(C)N=C(c2ncccc2C(=O)O)NC1=O (centres unmarked) [imazapyr],Injury (scale 0 to 9),[1],4.9 c
same,Injury (scale 0 to 9),[2],8.2 days
same,Injury (scale 0 to 9),[3],5.0 c
same,Injury (scale 0 to 9),[4],4.3 b
same,biomass accumulation (above ground dry weight),[5]; 0.5x (40 g ai/ha),100.0 % of untreated plots
same,plant height,[5]; 0.5x (40 g ai/ha),100.0 % of untreated plots
same,root dry weight,[5]; 0.5x (40 g ai/ha),100 % of untreated plots
same,biomass accumulation (above ground dry weight),[5]; 1x (80 g ai/ha),96.4 % of untreated plots
same,plant height,[5]; 1x (80 g ai/ha),100.0 % of untreated plots
same,root dry weight,[5]; 1x (80 g ai/ha),88.0 % of untreated plots
same,biomass accumulation (above ground dry weight),[5]; 2x (160 g ai/ha),97.7 % of untreated plots
same,plant height,[5]; 2x (160 g ai/ha),99.1 % of untreated plots
same,root dry weight,[5]; 2x (160 g ai/ha),90.0 % of untreated plots
same,biomass accumulation (above ground dry weight),[5]; 3x (240 g ai/ha),95.8 % of untreated plots
same,plant height,[5]; 3x (240 g ai/ha),98.1 % of untreated plots
same,root dry weight,[5]; 3x (240 g ai/ha),98.0 % of untreated plots
same,biomass accumulation (above ground dry weight),[5]; 4x (320 g ai/ha),90.8 % of untreated plots
same,plant height,[5]; 4x (320 g ai/ha),91.0 % of untreated plots
same,root dry weight,[5]; 4x (320 g ai/ha),80.0 % of untreated plots
same,biomass accumulation (above ground dry weight),[5]; 5x (400 g ai/ha),81.9 % of untreated plots
same,plant height,[5]; 5x (400 g ai/ha),94.3 % of untreated plots
same,root dry weight,[5]; 5x (400 g ai/ha),80.0 % of untreated plots
same,biomass accumulation (above ground dry weight),[5]; 6x (480 g ai/ha),78.0 % of untreated plots
same,plant height,[5]; 6x (480 g ai/ha),85.8 % of untreated plots
same,root dry weight,[5]; 6x (480 g ai/ha),65.8 % of untreated plots
same,biomass accumulation (above ground dry weight),[6]; 0.5x (40 g ai/ha),100.0 % of untreated plots
same,plant height,[6]; 0.5x (40 g ai/ha),97.0 % of untreated plots
same,root dry weight,[6]; 0.5x (40 g ai/ha),100 % of untreated plots
same,biomass accumulation (above ground dry weight),[6]; 1x (80 g ai/ha),100.0 % of untreated plots
same,plant height,[6]; 1x (80 g ai/ha),95.7 % of untreated plots
same,root dry weight,[6]; 1x (80 g ai/ha),100.0 % of untreated plots
same,biomass accumulation (above ground dry weight),[6]; 2x (160 g ai/ha),97.6 % of untreated plots
same,plant height,[6]; 2x (160 g ai/ha),95.2 % of untreated plots
same,root dry weight,[6]; 2x (160 g ai/ha),92.5 % of untreated plots
same,biomass accumulation (above ground dry weight),[6]; 3x (240 g ai/ha),95.4 % of untreated plots
same,plant height,[6]; 3x (240 g ai/ha),95.7 % of untreated plots
same,root dry weight,[6]; 3x (240 g ai/ha),85.2 % of untreated plots
same,biomass accumulation (above ground dry weight),[6]; 4x (320 g ai/ha),90.5 % of untreated plots
same,plant height,[6]; 4x (320 g ai/ha),94.1 % of untreated plots
same,root dry weight,[6]; 4x (320 g ai/ha),87.0 % of untreated plots
same,biomass accumulation (above ground dry weight),[6]; 5x (400 g ai/ha),85.3 % of untreated plots
same,plant height,[6]; 5x (400 g ai/ha),94.3 % of untreated plots
same,root dry weight,[6]; 5x (400 g ai/ha),88.1 % of untreated plots
same,biomass accumulation (above ground dry weight),[6]; 6x (480 g ai/ha),83.0 % of untreated plots
same,plant height,[6]; 6x (480 g ai/ha),91.4 % of untreated plots
same,root dry weight,[6]; 6x (480 g ai/ha),69.5 % of untreated plots
same,Phytotoxicity Index,[7]; 0.5x (40 g ai/ha),0
same,biomass accumulation (above ground dry weight),[7]; 0.5x (40 g ai/ha),91.7 % of untreated plots
same,plant height,[7]; 0.5x (40 g ai/ha),100.0 % of untreated plots
same,root dry weight,[7]; 0.5x (40 g ai/ha),81.5 % of untreated plots
same,Phytotoxicity Index,[7]; 1x (80 g ai/ha),0
same,biomass accumulation (above ground dry weight),[7]; 1x (80 g ai/ha),81.7 % of untreated plots
same,plant height,[7]; 1x (80 g ai/ha),100.0 % of untreated plots
same,root dry weight,[7]; 1x (80 g ai/ha),84.9 % of untreated plots
same,Phytotoxicity Index,[7]; 2x (160 g ai/ha),1.6
same,biomass accumulation (above ground dry weight),[7]; 2x (160 g ai/ha),54.7 % of untreated plots
same,plant height,[7]; 2x (160 g ai/ha),78.9 % of untreated plots
same,root dry weight,[7]; 2x (160 g ai/ha),58.8 % of untreated plots
same,Phytotoxicity Index,[7]; 3x (240 g ai/ha),5.1
same,biomass accumulation (above ground dry weight),[7]; 3x (240 g ai/ha),35.7 % of untreated plots
same,plant height,[7]; 3x (240 g ai/ha),50.0 % of untreated plots
same,root dry weight,[7]; 3x (240 g ai/ha),34.1 % of untreated plots
same,Phytotoxicity Index,[7]; 4x (320 g ai/ha),8.4
same,biomass accumulation (above ground dry weight),[7]; 4x (320 g ai/ha),25.3 % of untreated plots
same,plant height,[7]; 4x (320 g ai/ha),38.1 % of untreated plots
same,root dry weight,[7]; 4x (320 g ai/ha),27.3 % of untreated plots
same,Phytotoxicity Index,[7]; 5x (400 g ai/ha),8.9
same,biomass accumulation (above ground dry weight),[7]; 5x (400 g ai/ha),19.8 % of untreated plots
same,plant height,[7]; 5x (400 g ai/ha),31.8 % of untreated plots
same,root dry weight,[7]; 5x (400 g ai/ha),29.9 % of untreated plots
same,Phytotoxicity Index,[7]; 6x (480 g ai/ha),8.9
same,biomass accumulation (above ground dry weight),[7]; 6x (480 g ai/ha),19.5 % of untreated plots
same,plant height,[7]; 6x (480 g ai/ha),34.7 % of untreated plots
same,root dry weight,[7]; 6x (480 g ai/ha),22.1 % of untreated plots
